Laboratory results from PubChem BioAssay (NCI).
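Test compounds were applied to cells in 96-well plates for 48 hours at 5 doses. TGI denotes the concentration required for complete inhibition of growth.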

Assays:
Assay in all cases: NCI-60 cell line screen, 48 h
786-0 renal = test system: 786-0 renal
A549 NSCLC = test system: A549 NSCLC
CAKI-1 renal = test system: CAKI-1 renal
COLO 205 colon = test system: COLO 205 colon
EKVX NSCLC = test system: EKVX NSCLC
HS 578T breast = test system: HS 578T breast
K-562 leukemia = test system: K-562 leukemia
KM12 colon = test system: KM12 colon
MDA-MB-435 = test system: MDA-MB-435
OVCAR-3 ovarian = test system: OVCAR-3 ovarian
SF-295 CNS = test system: SF-295 CNS
SNB-19 CNS = test system: SNB-19 CNS
SR leukemia = test system: SR leukemia
SW-620 colon = test system: SW-620 colon
TK-10 renal = test system: TK-10 renal
UACC-257 melanoma = test system: UACC-257 melanoma
UACC-62 melanoma = test system: UACC-62 melanoma
NCI-H522 lung = test system: NCI-H522 lung
HCC-2998 colon = test system: HCC-2998 colon

Structure (SMILES)	TGI (786-0 renal) [µM]	TGI (A549 NSCLC) [µM]	TGI (CAKI-1 renal) [µM]	TGI (COLO 205 colon) [µM]	TGI (EKVX NSCLC) [µM]	TGI (HS 578T breast) [µM]	TGI (K-562 leukemia) [µM]	TGI (KM12 colon) [µM]	TGI (MDA-MB-435) [µM]	TGI (OVCAR-3 ovarian) [µM]	TGI (SF-295 CNS) [µM]	TGI (SNB-19 CNS) [µM]	TGI (SR leukemia) [µM]	TGI (SW-620 colon) [µM]	TGI (TK-10 renal) [µM]	TGI (UACC-257 melanoma) [µM]	TGI (UACC-62 melanoma) [µM]	TGI (NCI-H522 lung) [µM]	TGI (HCC-2998 colon) [µM]
CCOC(=O)/C(N=Nc1ccc(-n2c(C)nc3ccc(Br)cc3c2=O)cc1)=C(/C)O	> 100	> 100	> 100	> 100	> 100	70.7	> 100	> 100	> 100	> 100	> 100	> 100	> 100	> 100	> 100	> 100	> 100		
COC(=O)c1c2c(cc3c1CC1(C3)Cc3cc4c(c(C(C)=O)c3C1)CCC4)C=CC2 (configuration not stated)	> 31.6	> 31.6	> 100	> 31.6	> 31.6	> 31.6	> 31.6	> 31.6	> 31.6	> 31.6	> 31.6	> 31.6	> 31.6		> 31.6	> 31.6	> 31.6	> 31.6	
CCN1C(=O)/C(=C2\SC(c3ccccc3)(c3ccccc3)c3ccccc32)SC1=S	> 100	> 100		> 100	> 100	> 100	> 100	> 100	> 100	> 100	> 100	> 100	42.9		> 100	> 100	> 100	> 100	> 100
COc1cc2c(cc1OC)CN1CCCc3cc(OC)c(OC)cc3C1C2 (configuration not stated)	> 100	> 100	> 100	> 100	> 100	> 100	> 100	> 100	47.5	> 100	> 100	> 100		> 100	> 100	> 100	> 100	> 100	> 100
COc1cccc(CCNc2c(C#N)c3nc4ccccc4n3c3ccccc23)c1	> 75.9	> 100	> 100	> 47.4	> 100	> 27.2	> 100	> 44.5		> 100	> 100	> 86	> 100	> 100	> 100	> 100	> 100	0.397	> 100
COc1ccc(-c2nnc3n(Cc4ccccc4)c4ccccc4n3c2=O)cc1	25.1	> 100	45	> 100	> 100	> 100		> 100	> 100		41.8	80	> 100	> 100	58.1	> 100		80.7	> 100
N#CCCN(CCC#N)c1ccc(C(N=Nc2ccccc2)=Nc2ccc(Cl)cc2)cc1	> 100	> 100	> 100	> 100	> 100	> 100	> 100	> 100	> 100	> 100	> 100	> 100		> 100	> 100	> 100	> 100	> 100	> 100
CSc1cc(Br)ccc1-n1c(C(=O)c2ccccc2)c(SC)n(-c2ccccc2)c1=O	> 100	> 100	> 100	> 100	> 100	> 100	> 100	> 100		> 100	> 100	> 100	> 100	> 100	> 100	> 100	> 100	> 100	> 100
Cc1ccc(N=C2S/C(=C3/CCC=C3N3CCOCC3)N(c3ccc(Cl)cc3)C2=Nc2ccc(C)cc2)cc1	> 100	> 100		> 100	> 100	> 100	> 100	> 100				> 100	> 100	> 100	> 100	> 100	> 100		> 100
O=C(O)CC1NC(/C(=C/c2ccccc2O)NC(=O)c2ccccc2)OC1=O (configuration not stated)	> 100	> 100	> 100	> 100	> 100	> 100	> 100	> 100	> 100	> 61.2	> 95.7	49.5		> 100	> 100	> 100	> 100	> 100	> 100
O=c1cc(N2CCCC2)[nH]c(=O)n1-c1ccc(F)cc1	> 100	> 100	> 100	> 100	> 100	> 100	> 100	> 100	> 100	> 100	> 100	> 100		> 100	> 100	> 100	> 100	> 100	> 100
O=C1C(Cl)C2(CC(/C=C/c3ccccc3O)=NN2c2cccc(S(=O)(=O)O)c2)N1c1nc2ccccc2s1 (configuration not stated)	30	82.5		38.7	45.8	> 100	86.1	30.3	31.1			> 100	58	42.9	26	42	30.9	14.6	29
OC(c1cc2ccccc2[nH]1)C1(c2cccnc2)SCCCS1 (configuration not stated)	> 100	> 100	> 100	> 100	> 100	> 100	> 100	82	> 100		> 100	> 100	> 100	> 100	> 100	> 100	> 100	> 100	
